This note sets out measurements from patent US10420758B2, “Indolinyl-sulfonamide inhibitors of tankyrase and methods of use thereof” (The Board of Regents of the University of Texas System, priority 2015, dated 2019).

Common to all, as to test: PARP profiling, parsylation of immobilized histone
What all share (assay type): biochemical

The target in one test is PARP2 (Homo sapiens, UniProt Q9UGN5). Here is the method:
(§1) Performed by BPS Bioscience Inc., San Diego by following the BPS PARP or TNKS assay kit protocols. The enzymatic reactions were conducted in duplicate at room temperature for 1 hr in a 96 well plate coated with histone substrate. […] of reaction buffer (Tris.HCl, pH 8.0) contains NAD^+, biotinylated NAD^+, activated DNA, recombinant PARP enzyme and 10 μM of the test compound. […] After enzymatic reactions, 50 μL of Streptavidin-horseradish peroxidase was added to each well and the plate was incubated at room temperature for an additional 30 min. 100 μL of developer reagents were added to wells and luminescence was measured using a BioTek Synergy™ 2 microplate reader.

Another test deals with T1, PARP12 (Homo sapiens, UniProt Q9H0J9).
T1 sequence (Q9H0J9 1-701): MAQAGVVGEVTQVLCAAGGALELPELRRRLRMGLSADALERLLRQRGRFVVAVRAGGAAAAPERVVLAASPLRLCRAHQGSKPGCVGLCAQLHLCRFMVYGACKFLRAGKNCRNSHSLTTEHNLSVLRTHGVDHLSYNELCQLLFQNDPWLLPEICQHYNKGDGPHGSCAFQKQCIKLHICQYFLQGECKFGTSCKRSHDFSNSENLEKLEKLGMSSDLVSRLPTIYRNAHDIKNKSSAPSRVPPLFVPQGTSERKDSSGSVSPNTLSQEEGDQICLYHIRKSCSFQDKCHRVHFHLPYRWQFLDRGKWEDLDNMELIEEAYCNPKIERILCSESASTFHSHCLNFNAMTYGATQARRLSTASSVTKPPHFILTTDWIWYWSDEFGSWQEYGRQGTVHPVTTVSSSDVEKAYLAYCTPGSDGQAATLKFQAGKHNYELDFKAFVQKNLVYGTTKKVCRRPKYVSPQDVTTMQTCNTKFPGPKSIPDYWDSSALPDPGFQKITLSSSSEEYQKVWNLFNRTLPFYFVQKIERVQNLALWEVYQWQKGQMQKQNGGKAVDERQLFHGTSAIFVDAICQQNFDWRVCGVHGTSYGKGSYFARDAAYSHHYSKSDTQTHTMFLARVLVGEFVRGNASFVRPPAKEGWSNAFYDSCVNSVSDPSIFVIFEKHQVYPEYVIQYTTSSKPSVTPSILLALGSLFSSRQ
Here is the method:
as §1

The next test concerns the target T2, PARP8 (Homo sapiens, UniProt Q8N3A8).
T2 sequence (Q8N3A8 1-854): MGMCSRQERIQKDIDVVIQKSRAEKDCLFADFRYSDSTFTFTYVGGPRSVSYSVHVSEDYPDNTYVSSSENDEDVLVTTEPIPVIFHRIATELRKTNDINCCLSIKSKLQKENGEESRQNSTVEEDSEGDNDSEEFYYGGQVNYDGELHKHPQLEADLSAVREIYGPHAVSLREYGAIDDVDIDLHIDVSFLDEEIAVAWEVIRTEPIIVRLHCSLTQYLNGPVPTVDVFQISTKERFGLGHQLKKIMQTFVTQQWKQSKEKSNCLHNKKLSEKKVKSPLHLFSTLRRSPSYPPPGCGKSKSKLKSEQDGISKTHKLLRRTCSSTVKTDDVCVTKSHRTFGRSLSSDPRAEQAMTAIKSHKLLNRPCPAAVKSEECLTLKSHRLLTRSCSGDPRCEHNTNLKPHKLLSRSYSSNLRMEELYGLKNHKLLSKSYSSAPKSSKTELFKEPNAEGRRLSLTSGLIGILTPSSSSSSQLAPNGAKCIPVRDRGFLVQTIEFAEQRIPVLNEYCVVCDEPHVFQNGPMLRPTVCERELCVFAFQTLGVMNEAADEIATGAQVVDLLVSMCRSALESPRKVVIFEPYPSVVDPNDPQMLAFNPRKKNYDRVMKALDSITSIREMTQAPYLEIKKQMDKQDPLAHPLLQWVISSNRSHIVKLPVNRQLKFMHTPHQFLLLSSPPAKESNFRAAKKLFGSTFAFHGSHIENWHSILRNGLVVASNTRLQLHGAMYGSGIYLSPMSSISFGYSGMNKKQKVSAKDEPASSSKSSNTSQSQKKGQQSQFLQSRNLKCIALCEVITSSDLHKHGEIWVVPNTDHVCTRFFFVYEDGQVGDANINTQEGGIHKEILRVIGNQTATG
Here is the method:
as §1

Another test concerns the target T3, PARP15 (Homo sapiens, UniProt Q460N3).
T3 sequence (Q460N3 1-678): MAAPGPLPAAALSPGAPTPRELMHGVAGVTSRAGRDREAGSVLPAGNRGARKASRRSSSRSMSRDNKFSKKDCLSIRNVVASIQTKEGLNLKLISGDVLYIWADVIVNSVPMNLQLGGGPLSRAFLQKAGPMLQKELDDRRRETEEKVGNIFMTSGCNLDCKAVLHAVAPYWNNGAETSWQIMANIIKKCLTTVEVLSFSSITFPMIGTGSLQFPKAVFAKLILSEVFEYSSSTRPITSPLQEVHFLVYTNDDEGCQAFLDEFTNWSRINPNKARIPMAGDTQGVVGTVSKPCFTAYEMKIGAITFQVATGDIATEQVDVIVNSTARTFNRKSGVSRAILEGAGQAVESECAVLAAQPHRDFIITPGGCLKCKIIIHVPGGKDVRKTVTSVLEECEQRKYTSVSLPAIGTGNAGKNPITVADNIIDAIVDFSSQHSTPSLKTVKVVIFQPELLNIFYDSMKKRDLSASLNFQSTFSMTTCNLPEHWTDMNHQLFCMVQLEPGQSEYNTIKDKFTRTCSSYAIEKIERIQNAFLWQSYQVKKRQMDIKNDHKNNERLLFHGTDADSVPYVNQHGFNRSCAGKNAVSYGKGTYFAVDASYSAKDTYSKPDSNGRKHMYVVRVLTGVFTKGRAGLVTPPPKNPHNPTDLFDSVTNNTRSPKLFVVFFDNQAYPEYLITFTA
On the procedure: as §1

Chain of PARP2 (Q9UGN5 whole entry): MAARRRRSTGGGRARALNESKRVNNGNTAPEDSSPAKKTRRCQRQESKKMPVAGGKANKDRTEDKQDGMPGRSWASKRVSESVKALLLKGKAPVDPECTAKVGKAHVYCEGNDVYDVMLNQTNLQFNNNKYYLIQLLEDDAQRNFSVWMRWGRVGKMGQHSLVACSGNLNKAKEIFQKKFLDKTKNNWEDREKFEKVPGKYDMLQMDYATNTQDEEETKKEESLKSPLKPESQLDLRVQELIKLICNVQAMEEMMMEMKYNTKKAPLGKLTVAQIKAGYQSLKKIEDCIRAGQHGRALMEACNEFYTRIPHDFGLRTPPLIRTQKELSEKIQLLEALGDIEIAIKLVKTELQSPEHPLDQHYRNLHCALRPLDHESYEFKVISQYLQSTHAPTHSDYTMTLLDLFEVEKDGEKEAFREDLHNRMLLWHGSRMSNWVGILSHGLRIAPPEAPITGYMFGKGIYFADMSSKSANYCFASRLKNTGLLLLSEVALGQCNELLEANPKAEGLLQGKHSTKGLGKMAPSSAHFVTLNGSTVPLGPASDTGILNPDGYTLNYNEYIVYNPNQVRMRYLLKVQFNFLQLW

As a reminder, the % inhibition is the share of the control response that was lost under treatment. `O=C(Nc1cccc2cccnc12)c1ccc(N2C(=O)[C@@H]3[C@H](C2=O)[C@@H]2C=C[C@H]3C2)cc1` [IWR-1]: the “% inhibition” value at PARP2 (IWR compounds 10 μM) is given as 5%; on PARP12 (IWR compounds 10 μM), 11%; at PARP8 (IWR compounds 10 μM), 1%; on PARP15 (IWR compounds 10 μM), 0%.

As a reminder, the inhibition is the percentage by which the read-out fell short of the control. On to `O=C(c1cc(Cc2n[nH]c(=O)c3ccccc23)ccc1F)N1CCN(C(=O)C2CC2)CC1` [Olaparib], for which the inhibition at 0.02 µM at PARP2 is 100%; on PARP12, 84%; on PARP8, 96%; at PARP15, 82%.

As to `CCN(C(=O)C1CCN(S(=O)(=O)c2cc3c(cc2Br)CCN3C(C)=O)CC1)c1cccc(C)c1` [IWR-8], the inhibition at 10 µM on PARP2 (IWR compounds 10 μM) worked out at 3%; on PARP12 (IWR compounds 10 μM), 14%; on PARP8 (IWR compounds 10 μM) it was 0%; on PARP15 (IWR compounds 10 μM) it was 0%.
